From patent US12559529B2, “NPY2 receptor agonists” (Boehringer Ingelheim International GmbH, priority 2019, dated 2026) come the findings set out here.

*1 amine or outer side, *2 acyl side, *3 side chain or, on linkers, in order; H or OH if unused. Where a SMILES comes first, the peptide text is derived from it. Side-chain parts run from the residue outwards. The star is where a group is joined. C18 diacid = O=C(O)CCCCCCCCCCCCCCCCC(=O)*; γGlu = O=C(O)[C@H](CCC(=O)[*:2])N[*:1]; Isovaleryl = CC(C)CC(=O)*; AEEA = NCCOCCOCC(=O)O

The target in the test is T1, Human Neuropeptide Y2 Receptor (Homo sapiens, UniProt P49146).
T1 construct: purchased CHEMICON HTS066M
T1 sequence (P49146 1-381): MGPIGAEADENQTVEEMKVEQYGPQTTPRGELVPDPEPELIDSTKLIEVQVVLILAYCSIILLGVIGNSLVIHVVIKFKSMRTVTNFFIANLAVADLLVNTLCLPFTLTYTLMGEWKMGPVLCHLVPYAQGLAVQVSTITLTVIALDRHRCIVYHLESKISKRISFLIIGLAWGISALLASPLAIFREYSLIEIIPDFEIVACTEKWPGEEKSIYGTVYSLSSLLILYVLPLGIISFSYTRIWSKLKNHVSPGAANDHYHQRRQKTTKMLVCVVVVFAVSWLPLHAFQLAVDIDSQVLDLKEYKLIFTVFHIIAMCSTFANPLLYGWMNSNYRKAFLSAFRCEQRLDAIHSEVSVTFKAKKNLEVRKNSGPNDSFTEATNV
Briefly: Radioligand binding competition assay (RLB). The settings on record: Table 3; human 125I-PYY (1-36) 0.02 nM, Y2 receptor membranes; read-out: Ki. Put shortly:
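Peptide dilutions made in pH 7.4 HEPES assay buffer with 0.2% ovalbumin; human Y2 receptor membranes added at 0.5 μg protein/well; plates shaken 2 h at room temperature; reaction stopped by vacuum filtration onto PEI-treated GF/C filters with ice-cold high-salt washes; radioactivity counted by scintillation.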

As a reminder, the Ki is a measure of affinity in units of concentration, obtained from inhibition or displacement. Turning to `CC(C)CC(=O)N[C@@H](C)C(=O)N1CCC[C@H]1C(=O)N[C@@H](CCC(=O)O)C(=O)N[C@@H](CCCCNC(=O)COCCOCCNC(=O)COCCOCCNC(=O)CC[C@H](NC(=O)CCCCCCCCCCCCCCCCC(=O)O)C(=O)O)C(=O)N1CCC[C@H]1C(=O)N[C@@H](CCC(=O)O)C(=O)N[C@@H](CCC(=O)O)C(=O)N[C@@H](C)C(=O)N[C@@H](C)C(=O)N[C@@H](CO)C(=O)N1CCC[C@H]1C(=O)N[C@@H](CCC(=O)O)C(=O)N[C@@H](CCC(=O)O)C(=O)N[C@@H](CC(C)C)C(=O)N[C@@H](CCC(=O)O)C(=O)N[C@@H](CCC(N)=O)C(=O)N[C@@H](Cc1ccc(O)cc1)C(=O)N[C@@H](Cc1ccc(O)cc1)C(=O)N[C@H](C(=O)N[C@@H](CO)C(=O)N[C@@H](CC(C)C)C(=O)N[C@@H](CCCNC(=N)N)C(=O)N[C@@H](Cc1c[nH]cn1)C(=O)N[C@@H](Cc1ccc(O)cc1)C(=O)N[C@@H](Cc1ccc(O)cc1)C(=O)N[C@@H](CC(N)=O)C(=O)N[C@@H](Cc1c[nH]c2ccccc12)C(=O)N[C@@H](CC(C)C)C(=O)N[C@H](C(=O)N[C@@H](CCCNC(=N)N)C(=O)N[C@@H](CCC(N)=O)C(=O)N[C@@H](CCCNC(=N)N)C(=O)N[C@@H](Cc1ccc(O)cc1)C(N)=O)[C@@H](C)O)C(C)C` [Compound 60, N{alpha-4}-(3-methylbutanoyl)-N{epsilon-7}-[2-(2-{2-[2-(2-{2-[(4S)-4-carboxy-4-(17-carboxyheptadecanamido)butanamido]ethoxy}ethoxy)acetamido]ethoxy}ethoxy)acetamido]-[4A,7K,9E,11A,18E,19Q,22V,28Y,30W,31L]hPYY (4-36)] (Isovaleryl-APEK([AEEA-AEEA-γGlu-C18 diacid])PEEAASPEELEQYYVSLRHYYNWLTRQRY-NH2), the Ki was 5.95 nM.
On to `CC[C@H](C)[C@H](NC(=O)[C@H](CCC(=O)O)NC(=O)[C@H](CCC(=O)O)NC(=O)[C@@H]1CCCN1C(=O)[C@H](CO)NC(=O)[C@H](C)NC(=O)[C@H](CC(=O)O)NC(=O)[C@H](CCC(=O)O)NC(=O)[C@@H]1CCCN1C(=O)[C@@H]1CCCN1C(=O)[C@H](CCCCNC(=O)COCCOCCNC(=O)COCCOCCNC(=O)CC[C@H](NC(=O)CCCCCCCCCCCCCCCCC(=O)O)C(=O)O)NC(=O)[C@H](CCC(=O)O)NC(=O)[C@@H]1CCCN1C(=O)[C@H](C)NC(=O)CC(C)C)C(=O)N[C@@H](CCC(N)=O)C(=O)N[C@@H](CCCNC(=N)N)C(=O)N[C@@H](Cc1ccc(O)cc1)C(=O)N[C@@H](Cc1ccc(O)cc1)C(=O)N[C@H](C(=O)N[C@@H](CO)C(=O)N[C@@H](CC(C)C)C(=O)N[C@@H](CCCNC(=N)N)C(=O)N[C@@H](Cc1c[nH]cn1)C(=O)N[C@@H](Cc1ccc(O)cc1)C(=O)N[C@@H](Cc1ccc(O)cc1)C(=O)N[C@@H](CC(N)=O)C(=O)N[C@@H](Cc1c[nH]c2ccccc12)C(=O)N[C@@H](CC(C)C)C(=O)N[C@H](C(=O)N[C@@H](CCCNC(=N)N)C(=O)N[C@@H](CCC(N)=O)C(=O)N[C@@H](CCCNC(=N)N)C(=O)N[C@@H](Cc1ccc(O)cc1)C(N)=O)[C@@H](C)O)C(C)C` [Compound 61, N{alpha-4}-(3-methylbutanoyl)-N{epsilon-7}-[2-(2-{2-[2-(2-{2-[(4S)-4-carboxy-4-(17-carboxyheptadecanamido)butanamido]ethoxy}ethoxy)acetamido]ethoxy}ethoxy)acetamido]-[4A,7K,9P,17I,18Q,22V,28Y,30W,31L]hPYY (4-36)], for which the Ki was found to be 0.4 nM.
In the case of `CC(C)CC(=O)N[C@@H](C)C(=O)N1CCC[C@H]1C(=O)N[C@@H](CCC(=O)O)C(=O)N[C@@H](CCCCNC(=O)COCCOCCNC(=O)COCCOCCNC(=O)CC[C@H](NC(=O)CCCCCCCCCCCCCCCCC(=O)O)C(=O)O)C(=O)N1CCC[C@H]1C(=O)N[C@@H](CCC(=O)O)C(=O)N[C@@H](CCC(=O)O)C(=O)N[C@@H](CC(=O)O)C(=O)N[C@@H](C)C(=O)N[C@@H](CO)C(=O)N1CCC[C@H]1C(=O)N[C@@H](CCC(=O)O)C(=O)N[C@@H](CCC(=O)O)C(=O)N[C@@H](CC(C)C)C(=O)N[C@@H](CCC(N)=O)C(=O)N[C@@H](CCCNC(=N)N)C(=O)N[C@@H](Cc1ccc(O)cc1)C(=O)N[C@@H](Cc1ccc(O)cc1)C(=O)N[C@H](C(=O)N[C@@H](CO)C(=O)N[C@@H](CC(C)C)C(=O)N[C@@H](CCCNC(=N)N)C(=O)N[C@@H](C)C(=O)N[C@@H](Cc1ccc(O)cc1)C(=O)N[C@@H](Cc1ccc(O)cc1)C(=O)N[C@@H](CC(N)=O)C(=O)N[C@@H](Cc1c[nH]c2ccccc12)C(=O)N[C@@H](CC(C)C)C(=O)N[C@H](C(=O)N[C@@H](CCCNC(=N)N)C(=O)N[C@@H](CCC(N)=O)C(=O)N[C@@H](CCCNC(=N)N)C(=O)N[C@@H](Cc1ccc(O)cc1)C(N)=O)[C@@H](C)O)C(C)C` [Compound 63, N{alpha-4}-(3-methylbutanoyl)-N{epsilon-7}-[2-(2-{2-[2-(2-{2-[(4S)-4-carboxy-4-(17-carboxyheptadecanamido)butanamido]ethoxy}ethoxy)acetamido]ethoxy}ethoxy)acetamido]-[4A,7K,9E,18Q,22V,26A,28Y,30W,31L]hPYY (4-36)] it was 3.13 nM; in that of `CC[C@H](C)[C@H](NC(=O)[C@H](CCC(=O)O)NC(=O)[C@@H](NC(=O)[C@H](Cc1ccc(O)cc1)NC(=O)[C@H](Cc1ccc(O)cc1)NC(=O)[C@H](CCCNC(=N)N)NC(=O)[C@H](CCC(N)=O)NC(=O)[C@H](CC(C)C)NC(=O)[C@H](CCC(=O)O)NC(=O)[C@H](CCC(=O)O)NC(=O)[C@@H]1CCCN1C(=O)[C@H](CO)NC(=O)[C@H](C)NC(=O)[C@H](CC(=O)O)NC(=O)[C@H](CCC(=O)O)NC(=O)[C@H](CCC(=O)O)NC(=O)[C@@H]1CCCN1C(=O)[C@H](CCCCNC(=O)COCCOCCNC(=O)COCCOCCNC(=O)CC[C@H](NC(=O)CCCCCCCCCCCCCCCCC(=O)O)C(=O)O)NC(=O)[C@H](CCC(=O)O)NC(=O)[C@@H]1CCCN1C(=O)[C@H](C)NC(=O)CC(C)C)C(C)C)C(=O)N[C@@H](CCCNC(=N)N)C(=O)N[C@@H](Cc1c[nH]cn1)C(=O)N[C@@H](Cc1ccc(O)cc1)C(=O)N[C@@H](Cc1ccc(O)cc1)C(=O)N[C@@H](CC(N)=O)C(=O)N[C@@H](Cc1c[nH]c2ccccc12)C(=O)N[C@@H](CC(C)C)C(=O)N[C@H](C(=O)N[C@@H](CCCNC(=N)N)C(=O)N[C@@H](CCC(N)=O)C(=O)N[C@@H](CCCNC(=N)N)C(=O)N[C@@H](Cc1ccc(O)cc1)C(N)=O)[C@@H](C)O` [Compound 65, N{alpha-4}-(3-methylbutanoyl)-N{epsilon-7}-[2-(2-{2-[2-(2-{2-[(4S)-4-carboxy-4-(17-carboxyheptadecanamido)butanamido]ethoxy}ethoxy)acetamido]ethoxy}ethoxy)acetamido]-[4A,7K,9E,18Q,22V,23E,24I,28Y,30W,31L]hPYY (4-36)], 1.02 nM.
As to `CC(C)CC(=O)N[C@@H](C)C(=O)N1CCC[C@H]1C(=O)N[C@@H](CCC(=O)O)C(=O)N[C@@H](CCCCNC(=O)COCCOCCNC(=O)COCCOCCNC(=O)CC[C@H](NC(=O)CCCCCCCCCCCCCCCCC(=O)O)C(=O)O)C(=O)N1CCC[C@H]1C(=O)N[C@@H](CCC(=O)O)C(=O)N[C@@H](CCC(=O)O)C(=O)N[C@@H](CC(=O)O)C(=O)N[C@@H](CO)C(=O)N[C@@H](C)C(=O)N1CCC[C@H]1C(=O)N[C@@H](CCC(=O)O)C(=O)N[C@@H](CCC(=O)O)C(=O)N[C@@H](CC(C)C)C(=O)N[C@@H](CCC(N)=O)C(=O)N[C@@H](CCCNC(=N)N)C(=O)N[C@@H](Cc1ccc(O)cc1)C(=O)N[C@@H](Cc1ccc(O)cc1)C(=O)N[C@H](C(=O)N[C@@H](CO)C(=O)N[C@@H](CC(C)C)C(=O)N[C@@H](CCCNC(=N)N)C(=O)N[C@@H](Cc1c[nH]cn1)C(=O)N[C@@H](Cc1ccc(O)cc1)C(=O)N[C@@H](Cc1ccc(O)cc1)C(=O)N[C@@H](CC(N)=O)C(=O)N[C@@H](Cc1c[nH]c2ccccc12)C(=O)N[C@@H](CC(C)C)C(=O)N[C@H](C(=O)N[C@@H](CCCNC(=N)N)C(=O)N[C@@H](CCC(N)=O)C(=O)N[C@@H](CCCNC(=N)N)C(=O)N[C@@H](Cc1ccc(O)cc1)C(N)=O)[C@@H](C)O)C(C)C` [Compound 67, N{alpha-4}-(3-methylbutanoyl)-N{epsilon-7}-[2-(2-{2-[2-(2-{2-[(4S)-4-carboxy-4-(17-carboxyheptadecanamido)butanamido]ethoxy}ethoxy)acetamido]ethoxy}ethoxy)acetamido]-[4A,7K,9E,12S,13A,18Q,22V,28Y,30W,31L]hPYY (4-36)], the Ki was 4.37 nM.
